Test results as given in patent publication US8163756B2 (priority 2004, dated 2012).

What was measured:
Type in all cases: biochemical
Abl kinase = molecular target: T1, Abl kinase (Homo sapiens, UniProt P00519); assay: Abl kinase assay A1 (pyruvate kinase/lactate dehydrogenase coupled, spectrophotometric); details: Method A1; read-out: Abl Data (IC50)
T1 sequence (P00519 229-512): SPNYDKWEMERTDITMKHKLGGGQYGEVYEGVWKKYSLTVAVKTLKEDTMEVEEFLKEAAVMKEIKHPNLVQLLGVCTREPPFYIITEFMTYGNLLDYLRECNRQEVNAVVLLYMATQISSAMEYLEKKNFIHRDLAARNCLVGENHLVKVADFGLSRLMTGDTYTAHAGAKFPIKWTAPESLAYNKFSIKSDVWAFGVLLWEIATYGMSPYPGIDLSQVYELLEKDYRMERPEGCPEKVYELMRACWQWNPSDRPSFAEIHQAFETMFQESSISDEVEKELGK
Description: (§1) IC50 values were calculated from a series of percent inhibition values determined at a range of inhibitor concentrations using software routines as implemented in the GraphPad Prism software package.

KDR kinase = KDR kinase (Homo sapiens, UniProt P35968, DEL940-989/E990V); assay: KDR kinase assay K1 (pyruvate kinase/lactate dehydrogenase coupled, spectrophotometric); details: Method K1; read-out: KDR Data (IC50)
Description: as §1

B-Raf(V599E) kinase = B-Raf(V599E) kinase (Homo sapiens, UniProt P15056, V600E); assay: B-Raf(V599E) kinase assay B1 (construct 1, MEK1 substrate, coupled spectrophotometric)
Description: The test compounds were incubated with the reaction mixtureat 30° C. for 2 h. […] The reaction rate was calculated using the […] time frame. […] IC50 values were calculated from a series of percent inhibition values determined at a range of inhibitor concentrations using software routines as implemented in the GraphPad Prism software package.

[1] = molecular target: phosphorylated p-38-alpha kinase (Homo sapiens, UniProt Q16539); assay: P-38 alpha kinase assay P1 (coupled spectrophotometric, 2 h pre-incubation); details: method P1 (2 h pre-incubation); read-out: P-38 Data
Sequence of phosphorylated p-38-alpha kinase (Q16539 1-360 isoform Q16539-2): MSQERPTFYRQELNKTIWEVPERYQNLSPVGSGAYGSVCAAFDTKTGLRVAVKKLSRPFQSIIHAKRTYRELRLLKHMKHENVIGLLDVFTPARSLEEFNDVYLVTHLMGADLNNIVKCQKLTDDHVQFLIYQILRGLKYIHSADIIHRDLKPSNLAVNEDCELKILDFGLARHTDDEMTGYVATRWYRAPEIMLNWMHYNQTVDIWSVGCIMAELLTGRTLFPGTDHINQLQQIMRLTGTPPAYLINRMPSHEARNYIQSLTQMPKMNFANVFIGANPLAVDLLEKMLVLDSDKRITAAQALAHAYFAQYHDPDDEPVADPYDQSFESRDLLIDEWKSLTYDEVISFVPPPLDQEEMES

Sequence of KDR kinase (P35968 with tags, fused parts or gaps DEL940-989/E990V): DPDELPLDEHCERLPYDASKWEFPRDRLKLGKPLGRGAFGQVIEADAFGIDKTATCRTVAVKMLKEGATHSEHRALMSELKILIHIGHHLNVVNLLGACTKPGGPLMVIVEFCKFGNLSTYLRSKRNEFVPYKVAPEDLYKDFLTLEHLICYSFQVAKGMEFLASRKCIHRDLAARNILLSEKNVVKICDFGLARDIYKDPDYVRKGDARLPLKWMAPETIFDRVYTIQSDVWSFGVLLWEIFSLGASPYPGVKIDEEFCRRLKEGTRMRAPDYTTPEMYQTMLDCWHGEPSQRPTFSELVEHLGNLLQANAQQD
Sequence of B-Raf(V599E) kinase (P15056 with tags, fused parts or gaps V600E): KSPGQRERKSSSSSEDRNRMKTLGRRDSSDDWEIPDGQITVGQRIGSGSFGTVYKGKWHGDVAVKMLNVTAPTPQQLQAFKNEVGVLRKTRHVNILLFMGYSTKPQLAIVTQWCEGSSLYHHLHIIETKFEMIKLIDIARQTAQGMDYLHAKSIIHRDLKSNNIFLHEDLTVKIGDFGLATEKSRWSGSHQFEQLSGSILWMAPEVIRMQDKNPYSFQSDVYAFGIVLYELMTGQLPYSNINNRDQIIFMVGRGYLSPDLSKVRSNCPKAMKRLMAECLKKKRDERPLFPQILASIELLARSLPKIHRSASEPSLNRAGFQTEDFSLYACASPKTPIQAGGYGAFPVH

Row | SMILES | IC50 (Abl kinase) [µM] | IC50 (KDR kinase) [µM] | IC50 (B-Raf(V599E) kinase) [µM] | IC50 [1] [µM]
1 | CC(C)(C)c1cc(NC(=O)Nc2cccc(Cl)c2Cl)n(-c2cccc(C(C)(C)O)c2)n1 [Example 2, 1-{3-t-butyl-1-[3-(2-hydroxypropan-2-yl)phenyl]-1H-pyrazol-5-yl}-3-(2,3-dichlorophenyl)urea] | 2 | 0.46 | 0.019 | –
2 | CC(C)(C)c1cc(NC(=O)Nc2cccc(Cl)c2Cl)n(-c2cccc(C#N)c2)n1 [Example 9] | 0.18 | 0.047 | 0.0046 | –
3 | COc1cccc(-n2nc(C(C)(C)C)cc2NC(=O)Nc2cccc(Cl)c2Cl)c1 [Example 15, 1-(3-t-butyl-1-(3-methoxyphenyl)-1H-pyrazol-5-yl)-3-(2,3-dichlorophenyl)urea] | 0.39 | 0.081 | 0.0033 | –
4 | CC(C)(C)c1cc(NC(=O)Nc2cccc(Cl)c2Cl)n(-c2ccc(CO)cc2)n1 [Example 19, 1-{3-t-butyl-1-[4-(hydroxymethyl)-phenyl]-1H-pyrazol-5-yl}-3-(2,3-dichlorophenyl)urea] | 0.62 | 0.71 | 0.0048 | –
5 | CC(C)(C)c1cc(NC(=O)Nc2cccc(Cl)c2Cl)n(-c2cccc(CCN)c2)n1 [Example 39, 1-{1-[3-(2-aminoethyl)phenyl]-3-t-butyl-1H-pyrazol-5-yl}-3-(2,3-dichlorophenyl)urea] | 0.35 | 0.24 | 0.0071 | –
6 | CN(C)CCc1cccc(-n2nc(C(C)(C)C)cc2NC(=O)Nc2cccc(Cl)c2Cl)c1 [Example 40, 1-(3-t-butyl-1-{3-[2-(dimethylamino)ethyl]phenyl}-1H-pyrazol-5-yl)-3-(2,3-di-chlorophenyl)urea] | 0.57 | 0.47 | 0.0087 | –
7 | CC(C)(C)c1cc(NC(=O)Nc2cccc(Cl)c2Cl)n(-c2cccc(CN)c2)n1 [Example 42, 1-{1-[3-(aminomethyl)phenyl]-3-t-butyl-1H-pyrazol-5-yl}-3-(2,3-dichloro-phenyl)urea] | 1.5 | 0.36 | 0.01 | –
8 | CC(C)(C)c1cc(NC(=O)Nc2cccc(Cl)c2Cl)n(-c2cccc(C(=N)NO)c2)n1 [Example 43, 1-{1-[3-(N-hydroxycarbamimidoyl)phenyl]-3-t-butyl-1H-pyrazol-5-yl}-3-(2,3-dichlorophenyl)-urea] | – | 0.36 | 0.0043 | 0.013
9 | CC(C)(C)c1cc(NC(=O)Nc2ccc(Cl)cc2)n(-c2cc(CO)c3ccccc3c2)n1 [Example 61] | 0.81 | 1.5 | 0.018 | –
10 | CC(C)(C)c1cc(NC(=O)Nc2cccc(Cl)c2Cl)n(-c2ccc3c(c2)CCN3)n1 [Example 106, 1-(3-t-butyl-1-(indolin-5-yl)-1H-pyrazol-5-yl)-3-(2,3-dichlorophenyl)urea] | – | 0.12 | 0.0036 | 0.012
11 | CC(C)(C)c1cc(NC(=O)Nc2cc(F)cc(F)c2F)n(-c2ccc3c(c2)CCN3S(C)(=O)=O)n1 [Example 109, 1-(3-t-butyl-1-(1-(methylsulfonyl)indolin-5-yl)-1H-pyrazol-5-yl)-3-(2,3,5-trifluorophenyl)urea] | 0.14 | 0.038 | 0.0027 | –
12 | CC(C)(C)c1cc(NC(=O)Nc2cccc(Cl)c2Cl)n(-c2ccc3c(c2)CN(C(=N)N)CC3)n1 [Example 130, 1-[3-t-butyl-1-(2-carbamimidoyl-1,2,3,4-tetrahydroisoquinolin-7-yl)-1H-pyrazol-5-yl]-3-(2,3-dichlorophenyl)urea] | 0.23 | 0.32 | – | –
13 | CC(C)(C)c1cc(NC(=O)Nc2cccc(Cl)c2Cl)n(-c2ccc3c(c2)CCN3S(=O)(=O)C(F)(F)F)n1 [Example 201, 1-(3-t-butyl-1-(1-(trifluoromethylsulfonyl)indolin-5-yl)-1H-pyrazol-5-yl)-3-(2,3-dichlorophenyl)urea] | – | 0.13 | – | 0.15
14 | CC(C(=O)O)c1ccc(-n2nc(C(C)(C)C)cc2NC(=O)Nc2cccc(Cl)c2Cl)cc1 (centres unmarked) [Example 202, 2-(4-(3-t-butyl-5-(3-(2,3-dichlorophenyl)ureido)-1H-pyrazol-1-yl)phenyl)propanoic acid] | – | 0.23 | – | 0.012
15 | CC(C(N)=O)c1ccc(-n2nc(C(C)(C)C)cc2NC(=O)Nc2cccc(Cl)c2Cl)cc1 (centres unmarked) [Example 203, 1-(1-(4-(1-amino-1-oxopropan-2-yl)phenyl)-3-t-butyl-1H-pyrazol-5-yl)-3-(2,3-dichlorophenyl)urea] | – | 0.16 | – | 0.017
16 | CNC(=O)C1NCCc2cc(-n3nc(C(C)(C)C)cc3NC(=O)Nc3cccc(Cl)c3Cl)ccc21 (centres unmarked) [Example 204, 1-(3-t-butyl-1-(1-(methylcarbamoyl)-1,2,3,4-tetrahydroisoquinolin-6-yl)-1H-pyrazol-5-yl)-3-(2,3-dichlorophenyl)urea] | – | 0.099 | – | 0.009

Row | SMILES | IC50 (Abl kinase) [µM] | IC50 (KDR kinase) [µM] | IC50 (B-Raf(V599E) kinase) [µM] | IC50 [1] [µM]
17 | CC(C)(C)c1cc(NC(=O)Nc2cccc(Cl)c2Cl)n(-c2ccc3c(c2)CC(C(=O)O)NC3)n1 (centres unmarked) [Example 205] | – | 0.28 | – | 0.029
18 | COc1ccc(-n2nc(C(C)(C)C)cc2NC(=O)Nc2cccc(F)c2F)cc1 [Example 241, 1-[3-t-butyl-1-(4-methoxyphenyl)-1H-pyrazol-5-yl]-3-(2,3-difluorophenyl)urea] | – | 0.57 | 0.024 | 0.22
19 | CCOC(=O)CCc1cccc(-n2nc(C(C)(C)C)cc2NC(=O)Nc2cccc(Cl)c2Cl)c1 [Example 264, 3-(3-{3-t-butyl-5-[3-(2,3-dichlorophenyl)ureido]-1H-pyrazol-1-yl}phenyl)propionic acid ethyl ester] | – | 0.14 | 0.0073 | 0.082
20 | CC(Cc1cccc(-n2nc(C(C)(C)C)cc2NC(=O)Nc2cccc(Cl)c2Cl)c1)C(=O)O (centres unmarked) [Example 267, 3-(3-{3-t-butyl-5-[3-(2,3-dichlorophenyl)ureido]-1H-pyrazol-1-yl}-phenyl)-2-methylpropanoic acid] | – | 0.55 | 0.0079 | 0.012
21 | CC(C)(C)c1cc(NC(=O)Nc2cccc(Cl)c2Cl)n(-c2cccc(Cn3c(=O)[nH]n(-c4ccccc4)c3=O)c2)n1 [Example 273, 1-(3-t-butyl-1-{3-[(3,5-dioxo-1-phenyl-1,2,4-triazolidin-4-yl)methyl]phenyl}-1H-pyrazol-5-yl)-3-(2,3-dichlorophenyl)urea] | – | 1.7 | 0.0087 | 0.034
22 | CC(C)(C)c1cc(NC(=O)Nc2cc(F)cc(F)c2F)n(-c2cc(CNC(N)=O)c3ccccc3c2)n1 [Example 296] | – | 0.2 | 0.003 | –
23 | CC(C)(C)c1cc(NC(=O)Nc2cc(F)c(F)cc2F)n(-c2cc(CNC(N)=O)c3ccccc3c2)n1 [Example 297] | – | 0.27 | 0.0032 | –
24 | CC(C)(C)c1cc(NC(=O)Nc2cccc(F)c2F)n(-c2ccc3c(c2)CCN3)n1 [Example 307, 1-(3-t-butyl-1-(indolin-5-yl)-1H-pyrazol-5-yl)-3-(2,3-difluorophenyl)urea] | – | 0.72 | 0.01 | –
25 | CC(C)(C)c1cc(NC(=O)Nc2ccsc2)n(-c2ccc3c(c2)CCC(=O)N3)n1 [Example 316, 1-(3-t-butyl-1-(2-oxo-1,2,3,4-tetrahydro-quinolin-6-yl)-1H-pyrazol-5-yl)-3-(thiophen-3-yl)urea] | – | 12.9 | 0.066 | –
26 | CC(C)(C)c1cc(NC(=O)NC2CCCCC2)n(-c2ccc3c(c2)CCC(=O)N3)n1 [Example 318, 1-(3-t-butyl-1-(2-oxo-1,2,3,4-tetrahydroquinolin-6-yl)-1H-pyrazol-5-yl)-3-cyclohexylurea] | – | 10.1 | 0.029 | –
27 | CC(C)(C)c1cc(NC(=O)Nc2ccccc2)n(-c2ccc3c(c2)CCC(=O)N3)n1 [Example 319, 1-(3-t-butyl-1-(2-oxo-1,2,3,4-tetrahydro-quinolin-6-yl)-1H-pyrazol-5-yl)-3-phenylurea] | – | 4.3 | 0.032 | –
28 | CC(C)(C)c1cc(NC(=O)Nc2cccc(Cl)c2Cl)n(-c2ccc3c(c2)CCN(S(C)(=O)=O)CC3)n1 [Example 336, 1-(3-t-butyl-1-(3-(methylsulfonyl)-2,3,4,5-tetrahydro-1H-benzo[d]azepin-7-yl)-1 H-pyrazol-5-yl)-3-(2,3-dichlorophenyl)urea] | – | 0.17 | 0.002 | 0.011
29 | CC(C)(C)c1cc(NC(=O)Nc2cccc(Cl)c2Cl)n(-c2ccc(CC(=O)O)cc2)n1 [Example 383] | – | 0.28 | 0.0081 | 0.007
30 | CC(C)(C)c1cc(NC(=O)Nc2cccc(Cl)c2Cl)n(-c2ccc(CC(=O)N3CCS(=O)(=O)CC3)cc2)n1 [Example 495] | – | 1.5 | 0.055 | –
31 | CC1(O)CCN(C(=O)Cc2ccc(-n3nc(C(C)(C)C)cc3NC(=O)Nc3cccc(Cl)c3Cl)cc2)CC1 [Example 496, 1-(3-t-butyl-1-{4-[2-(4-hydroxy-4-methylpiperidin-1-yl)-2-oxoethyl]phenyl}-1H-pyrazol-5-yl)-3-(2,3-dichlorophenyl)urea] | – | 0.47 | 0.026 | 0.005
